# According to patent publication US20250057808A1, “COMPOSITION COMPRISING BETA LACTAM FOR TREATING ALCOHOL DEPENDENCE AND ALCOHOL ASSOCIATED DISEASES OR CONDITIONS” (Temple University of the Commonwealth System of Higher …, priority 2023, published 2025):
# “Also recorded” adds a separate entry of the source.
# Assays:
# [1] = earlier and literature studies in rats; cited from earlier work
# PPAR-α = experiment: Western blot PPAR-α expression in NAc-core, NAc-shell and liver; assay type: in vivo, P rats; details: MC-100093 50 mg/kg or ceftriaxone 200 mg/kg i.p. 5 days; among all groups
# Description: (§1) We used micro-punch procedure to dissect the subregions of the NAc such as NAc-core and NAc-shell as well as the subregions of prefrontal cortex such as infralimbic (IL) and prelimbic (PL) from the brain on day 6 after the last injection day. P rats were removed from the cage and rapidly euthanized by CO2 inhalation followed by rapid decapitation with a guillotine. Brains were isolated and immediately frozen on dry ice and stored at −80° C. The stereotaxic coordinates provided by Paxinos and colleague's rat brain stereotactic atlas was used to isolate NAc-core and NAc-shell using a cryostat apparatus (−20° C.), which then kept at −80° C. for later western blot analyses.
# (§2) Western Blot assay was performed to measure changes in the expression of GLT-1, xCT, mGluR1, mGluR5, PPAR-α, PPARγ, GAPDH and β-tubulin in the NAc-core and NAc-shell as described in previous publications. A lysis buffer containing protease and phosphatase inhibitors was used to generate a homogenate of liver, Nac-core, and Nac-shell samples. The amount of protein was quantified using a detergent compatible protein assay (Bio-Rad, Hercules, CA, USA) for each sample. Samples were mixed with laemmli dye and loaded with equal amounts on polyacrylamide gels (10%), which separated the proteins using electrophoresis. After that, polyvinylidene difluoride (PVDF) membranes were used to transfer the proteins electrophoretically from the gels. Membranes were incubated in 5% free-fat milk in Tris-buffered saline with Tween-20 (TBST) for 30-60 minutes at room temperature. Membranes were then incubated with appropriate primary antibodies overnight at 4° C.: rabbit anti-GLT-1 (1:5000, Abcam, ab41621), rabbit anti-xCT (1:2000, Abcam, ab175186), rabbit anti-mGluR1 (1:1000, Abcam, ab82211), rabbit anti-mGluR5 (1:1000, Abcam, ab76316), rabbit anti-PPAR-α (1:1000, Abcam, ab24509), and rabbit anti-PPARγ (1:1000, Abcam, ab209350). Mouse anti-β-tubulin (1:1000; BioLegend) was used as a loading control antibody for the brain samples and rabbit anti-GAPDH (1:5000; cell signaling) was used as a loading control antibody for the liver samples. Membranes were washed five times on the next day with TBST followed by incubation with appropriate secondary antibody (1:5000) for 90 minutes at room temperature. Chemiluminescent reagents (Super Signal West Pico, Pierce Inc.) were used to detect the proteins using a GeneSys imaging system to develop the digitized blot images. Water-control group data were represented as 100% and all other values were expressed relative to control group to detect changes in the expression of the protein of interest in the brain and liver samples.
# (§3) All statistical analyses were conducted with Graphpad Prism software, with p-values of 0.05 or less being statistically significant. […]
# PPAR-γ = experiment: Western blot PPAR-γ expression in liver; assay type: in vivo, P rats; details: MC-100093 50 mg/kg or ceftriaxone 200 mg/kg i.p. 5 days; between all groups
# Description: Western Blot assay was performed to measure changes in the expression of GLT-1, xCT, mGluR1, mGluR5, PPAR-α, PPARγ, GAPDH and β-tubulin in the NAc-core and NAc-shell as described in previous publications. A lysis buffer containing protease and phosphatase inhibitors was used to generate a homogenate of liver, Nac-core, and Nac-shell samples. The amount of protein was quantified using a detergent compatible protein assay (Bio-Rad, Hercules, CA, USA) for each sample. Samples were mixed with laemmli dye and loaded with equal amounts on polyacrylamide gels (10%), which separated the proteins using electrophoresis. After that, polyvinylidene difluoride (PVDF) membranes were used to transfer the proteins electrophoretically from the gels. Membranes were incubated in 5% free-fat milk in Tris-buffered saline with Tween-20 (TBST) for 30-60 minutes at room temperature. Membranes were then incubated with appropriate primary antibodies overnight at 4° C.: rabbit anti-GLT-1 (1:5000, Abcam, ab41621), rabbit anti-xCT (1:2000, Abcam, ab175186), rabbit anti-mGluR1 (1:1000, Abcam, ab82211), rabbit anti-mGluR5 (1:1000, Abcam, ab76316), rabbit anti-PPAR-α (1:1000, Abcam, ab24509), and rabbit anti-PPARγ (1:1000, Abcam, ab209350). […]
# [2] = Ethanol drinking paradigm, three-bottle choice (MC-100093 50 mg/kg vs ceftriaxone 200 mg/kg); assay type: in vivo, P rats
# Description: P rats were received from Indiana University School of Medicine (Indianapolis, IN, USA), and were housed in a 21° C. on a 12/12 h light/dark cycle-maintained room where they had free access to water and food. All experimental procedures were approved by the Institutional Animal Care and Use Committee (IACUC) of The University of Toledo, in accordance with the guidelines governing the use of animals in research of the National Institutes of Health as described in the Guidefor the Care and Use of Laboratory Animals.
# We used an ethanol drinking paradigm as described previously by Alhaddad, et al. (2014). Briefly, animals started the experimental drinking procedure at age of 90 days. The animals had five weeks of exposure to continuous three-bottle choice drinking, 0%, 15% and 30%, v/v ethanol in water, available concurrently. Daily measurement of ethanol intake was performed (g of ethanol intake/kg of body weight/day). We measured the baseline ethanol drinking by average the intake during the last three weeks. Three groups of P rats (n=8-9/group) exposed to the five weeks ethanol exposure. At week 6, rats in each group received daily intraperitoneal injection of either MC-100093 at dose of 50 mg/kg (Ethanol-MC group), Ceftriaxone at dose of 200 mg/kg (Ethanol-CEF group, which also serves as positive control), or equivolume of saline vehicle (Ethanol group) for five days. This paradigm results in pharmacologically relevant blood alcohol concentration (50-200 mg %). Following the criteria for the development of ethanol dependence, rats whose average ethanol intake <4 g/kg/day were excluded from the study. Beside the ethanol exposed groups, another group of P rats (n=8) exposed to only water and food throughout the exposure procedures (control group).
# (§4) All statistical analyses were conducted with Graphpad Prism software, with p-values of 0.05 or less being statistically significant. We performed a two-way (mixed model) ANOVA followed by Bonferroni multiple comparison post-hoc test to analyze 24 h ethanol consumption, 24 h water consumption, and daily body weight. For the Western blot and oil red O staining analysis, we performed one-way ANOVA with Newman-Keuls as a post hoc multiple comparison test to measure differences between groups as a percentage (relative to control values).
# fat content in the liver = experiment: Liver Oil Red O staining (fat content); assay type: in vivo, P rats; details: MC-100093 50 mg/kg or ceftriaxone 200 mg/kg i.p. 5 days, control, ethanol, ethanol-CEF groups
# Description: To measure the fat content in the liver sections, we used Oil Red O (Sigma, CAS Number 1320-06-5) staining on 10 μm thick formalin-fixed liver sections and placed in slides for further staining. The slides were stained with freshly prepared Oil Red O working solution 15 minutes then rinsed with 60% isopropanol. Slides were then rinsed with distilled water and mounted in aqueous mounting media and prepared for imaging. The degree of Oil Red O staining was determined at 20× magnification using a color video camera attached to an Olympus VS120 slide scanning microscope. Olympus OlyVIA software was used to analyze the images. The lipid droplets were quantified using Image J pro (NIH). Data are presented as the mean+SEM of the Oil Red O staining for each group.
# as §4
# GLT-1 [3] = experiment: Western blot GLT-1 expression in NAc-core, NAc-shell and liver (50 mg/kg study); assay type: in vivo, P rats; details: MC-100093 50 mg/kg or ceftriaxone 200 mg/kg i.p. 5 days
# Description: as §1, §2, §4
# xCT [4] = details: earlier studies, chronic ethanol; cited from earlier work
# xCT [5] = experiment: Western blot xCT expression in NAc-core, NAc-shell and liver (50 mg/kg study); assay type: in vivo, P rats; details: MC-100093 50 mg/kg or ceftriaxone 200 mg/kg i.p. 5 days
# Description: as §1, §2, §4
# mGluR5 = experiment: Western blot mGluR5 expression in NAc-core and NAc-shell; assay type: in vivo, P rats; details: MC-100093 50 mg/kg or ceftriaxone 200 mg/kg i.p. 5 days
# Description: as §1, §2, §3
# mGluR1 = experiment: Western blot mGluR1 expression in NAc-core and NAc-shell; assay type: in vivo, P rats; details: MC-100093 50 mg/kg or ceftriaxone 200 mg/kg i.p. 5 days; among all groups
# Description: as §1, §2, §3
# GLT-1 [6] = details: earlier studies, chronic ethanol; cited from earlier work
# [7] = ceftriaxone 200 mg/kg i.p. vs MC-100093 50 mg/kg i.p., days 2 through 5
structure (smiles),measurement,setting,value
"CO/N=C(\C(=O)N[C@@H]1C(=O)N2C(C(=O)O)=C(CSc3nc(=O)c(=O)[nH]n3C)CS[C@H]12)c1csc(N)n1 [Ceftriaxone, reference compound]",Ethanol drinking behavior / consumption,[1],decreased ethanol consumption in rats; also recorded: attenuated ethanol drinking behaviors
same,Protein expression of PPAR-α in the NAc-core,PPAR-α,non-significant differences; also recorded: did not detect significant changes
same,Protein expression of PPAR-α in the NAc-shell,PPAR-α,non-significant differences; also recorded: did not detect significant changes
same,Protein expression of PPAR-γ in the liver,PPAR-γ,not changed significantly
same,Body weight (grams),[2]; MC-100093 50 mg/kg i.p. or ceftriaxone 200 mg/kg i.p. 5 days,"Neither MC-100093 (50 mg/kg, i.p.) nor Ceftriaxone (200 mg/kg, i.p.) treatment has significant effect; also recorded: no significant effects"
same,Water intake (mL/day),"[2]; MC-100093 50 mg/kg i.p. or ceftriaxone 200 mg/kg i.p. 5 days, vs Ethanol-Saline group (MC-100093: at day 5 only)",significant increase in water consumption from day 1 through day 5; also recorded: significant increase in water consumption from day 2 through day 5
same,Ethanol consumption (g/kg of average body weight/24 hr),"[2]; P rats after 5 wk ethanol, MC-100093 50 mg/kg i.p. or ceftriaxone 200 mg/kg i.p. daily 5 days, vs Ethanol-Saline group",significant decrease in ethanol consumption from day 1 through day 5; also recorded: significantly reduced ethanol consumption from day 2 through day 5; also recorded: attenuated ethanol drinking behavior
same,"Ethanol consumption, Ethanol-Ceftriaxone compared to Ethanol-MC group",[2]; [7],significantly lower; also recorded: attenuate drinking behavior to a greater extent than MC-100093
same,"Water consumption, Ethanol-Ceftriaxone compared to Ethanol-MC group",[2]; [7],significantly higher
same,Liver fat content (Oil Red O stained fat droplets),fat content in the liver,"no significant difference in fat content between control, ethanol-MC, and ethanol-CEF groups; also recorded: significantly higher fat droplet content in ethanol group (p<0.05) compared to control, ethanol-MC or ethanol-CEF groups; also recorded: alleviated the liver steatosis"
same,Protein expression of GLT-1 in the liver,GLT-1 [3],normalized GLT-1 level; also recorded: normalize the PPAR-α and GLT-1 levels in the liver
same,Protein expression of GLT-1 in the NAc-core,"GLT-1 [3]; among Control, Ethanol, Ethanol-MC, Ethanol-CEF",non-significant difference; also recorded: no significant difference
same,Protein expression of GLT-1 in the NAc-shell,GLT-1 [3]; vs Ethanol group,significantly increased
same,xCT expression in the NAc,xCT [4],attenuation of downregulation of GLT-1 as well as xCT expression; also recorded: upregulated GLT-1 and xCT expression in the NAc
same,Protein expression of xCT in the NAc-core,xCT [5]; among all groups,non-significant difference; also recorded: no significant difference
same,Protein expression of xCT in the liver,xCT [5]; between all groups,no significant differences
same,Protein expression of xCT in the NAc-shell,xCT [5]; vs Ethanol group,significantly higher level of xCT; also recorded: significantly increased xCT expression
same,Protein expression of mGluR5 in the NAc-core,mGluR5; among all groups,non-significant difference; also recorded: no significant difference
same,Protein expression of mGluR5 in the NAc-shell,mGluR5; vs control or ethanol groups,"no significant change in the expression of mGluR5; also recorded: significantly downregulated in ethanol group compared to control, Ethanol-MC (50 mg/kg), and Ethanol-CEF (200 mg/kg) groups; also recorded: normalizing levels of mGluR5"
same,Protein expression of mGluR1 in the NAc-core,mGluR1,non-significant difference; also recorded: no significant difference
same,Protein expression of mGluR1 in the NAc-shell,mGluR1,non-significant differences; also recorded: no significant difference
same,GLT-1 expression in the NAc,GLT-1 [6],attenuation of downregulation of GLT-1 as well as xCT expression; also recorded: upregulated GLT-1 and xCT expression in the NAc
CC1CC=NN1C(=O)c1cccnc1 (centres unmarked) [MS-153],Ethanol drinking behavior / consumption,[1],attenuated ethanol drinking behaviors
same,xCT expression in the NAc,xCT [4],upregulated GLT-1 and xCT expression in the NAc
same,GLT-1 expression in the NAc,GLT-1 [6],upregulated GLT-1 and xCT expression in the NAc
Cc1ccc(C)c(OCCCC(C)(C)C(=O)O)c1 [Gemfibrozil],Ethanol drinking behavior / consumption,[1],reduced ethanol drinking behavior in rats
